Results reported in ChEMBL document CHEMBL1177777, “Novel pyridobenzimidazole derivatives exhibiting antifungal activity by the inhibition of beta-1,6-glucan synthesis” (2010).
Values after ≈ are worked out from the molar mass of the structure shown. Active and inactive are the calls of the source. No cut-off for these calls is given here.

Columns and labels:
Pichia kudriavzevii [1] = test: Antifungal activity against Candida krusei TIMM 0269 after 24 hrs by microdilution method; format: functional; conditions: TIMM 0269, 24 h
Aspergillus fumigatus [2] = test: Antifungal activity against Aspergillus fumigatus ATCC 36607 after 24 hrs by microdilution method; format: functional; conditions: ATCC 36607, 24 h
Candida albicans [3] = test: Antifungal activity against Candida albicans ATCC 24433 after 24 hrs by microdilution method; format: functional; conditions: ATCC 24433, 24 h
Nakaseomyces glabratus [4] = test: Antifungal activity against Candida glabrata IFO 0622 after 24 hrs by microdilution method; format: functional; conditions: IFO 0622, 24 h
Candida tropicalis [5] = test: Antifungal activity against Candida tropicalis TIMM 0313 after 24 hrs by microdilution method; format: functional; conditions: TIMM 0313, 24 h
Candida albicans [6] = test: Antifungal activity against Candida albicans ATCC 24433 assessed as inhibition of beta-1,6-glucan synthesis; format: functional, organism-based
Aspergillus fumigatus [7] = test: Antifungal activity against Aspergillus fumigatus ATCC 36607 assessed as inhibition of beta-1,6-glucan synthesis; format: functional, organism-based
Candida tropicalis [8] = test: Antifungal activity against Candida tropicalis TIMM 0313 assessed as inhibition of beta-1,6-glucan synthesis; format: functional, organism-based
Pichia kudriavzevii [9] = test: Antifungal activity against Candida krusei TIMM 0269 assessed as inhibition of beta-1,6-glucan synthesis; format: functional, organism-based
Nakaseomyces glabratus [10] = test: Antifungal activity against Candida glabrata IFO 0622 assessed as inhibition of beta-1,6-glucan synthesis; format: functional, organism-based

Row | Structure (SMILES) | MIC (Pichia kudriavzevii [1]) | MIC (Aspergillus fumigatus [2]) | MIC (Candida albicans [3]) | MIC (Nakaseomyces glabratus [4]) | MIC (Candida tropicalis [5]) | inhibition (Candida albicans [6]) | inhibition (Aspergillus fumigatus [7]) | inhibition (Candida tropicalis [8]) | inhibition (Pichia kudriavzevii [9]) | inhibition (Nakaseomyces glabratus [10])
1 | CCc1c(C)c(C#N)c2nc3ccccc3n2c1N1CCCC1 | > 64 µg/mL | > 64 µg/mL | > 64 µg/mL | > 64 µg/mL | > 64 µg/mL | – | – | – | – | –
2 | CCc1c(C)c(C#N)c2nc3ccccc3n2c1NCCN | 32 µg/mL (≈ 109 µM) | > 128 µg/mL | > 128 µg/mL | 4 µg/mL (≈ 13.6 µM) | > 128 µg/mL | – | – | – | – | –
3 | Cc1cc(N2CC[C@H](N(C)C)C2)n2c(nc3ccccc32)c1C#N | 32 µg/mL (≈ 100 µM) | > 128 µg/mL | > 128 µg/mL | 8 µg/mL (≈ 25 µM) | > 128 µg/mL | – | – | – | – | –
4 | CCCNc1c(CC)c(C)c(C#N)c2nc3ccccc3n12 | > 128 µg/mL | > 128 µg/mL | > 128 µg/mL | > 128 µg/mL | > 128 µg/mL | – | – | – | – | –
5 | CCc1c(C)c(C#N)c2nc3ccccc3n2c1NCCN(CC)CC | 4 µg/mL (≈ 11.4 µM) | > 128 µg/mL | > 128 µg/mL | 1 µg/mL (≈ 2.86 µM) | > 128 µg/mL | – | – | – | – | –
6 | CCc1c(C)c(C#N)c2nc3ccccc3n2c1N1CCC(N(C)C)CC1 | > 128 µg/mL | > 128 µg/mL | > 128 µg/mL | > 128 µg/mL | > 128 µg/mL | – | – | – | – | –
7 | CCc1c(C)c(C#N)c2nc3ccccc3n2c1N1CC[C@@H](N(C)C)C1 | 16 µg/mL (≈ 46 µM) | > 128 µg/mL | > 128 µg/mL | 1 µg/mL (≈ 2.88 µM) | 64 µg/mL (≈ 184 µM) | – | – | – | – | –
8 | CCc1c(C)c(C#N)c2nc3ccccc3n2c1N1CCN(C)CC1 | > 32 µg/mL | > 32 µg/mL | > 32 µg/mL | > 32 µg/mL | > 32 µg/mL | – | – | – | – | –
9 | CC(=O)OCCc1c(C)c(C#N)c2nc3ccccc3n2c1N1CC[C@H](N(C)C)C1 | 4 µg/mL (≈ 9.86 µM) | > 128 µg/mL | > 128 µg/mL | 1 µg/mL (≈ 2.47 µM) | 16 µg/mL (≈ 39.5 µM) | – | – | – | – | –
10 | CCc1c(C)c(C#N)c2nc3ccccc3n2c1NCCCN(C)C | > 128 µg/mL | > 128 µg/mL | > 128 µg/mL | > 128 µg/mL | > 128 µg/mL | – | – | – | – | –
11 | OC(Cn1cncn1)(Cn1cncn1)c1ccc(F)cc1F [FLUCONAZOLE] | 16 µg/mL (≈ 52.2 µM) | > 64 µg/mL | 0.25 µg/mL (≈ 0.816 µM) | 2 µg/mL (≈ 6.53 µM) | 0.25 µg/mL (≈ 0.816 µM) | – | – | – | – | –
12 | Cc1c(F)c(N2CC[C@H](N(C)C)C2)n2c(nc3ccccc32)c1C#N | 16 µg/mL (≈ 47.4 µM) | > 128 µg/mL | > 128 µg/mL | 4 µg/mL (≈ 11.9 µM) | > 128 µg/mL | – | – | – | – | –
13 | Cc1c(-c2ccccc2)c(N2CC[C@H](N(C)C)C2)n2c(nc3ccccc32)c1C#N | ≤ 0.125 µg/mL | > 128 µg/mL | > 128 µg/mL | ≤ 0.125 µg/mL | 0.5 µg/mL (≈ 1.26 µM) | Active | Active | Active | Active | Active
14 | CCc1c(C)c(C(N)=O)c2nc3ccccc3n2c1NCCN(C)CC | > 128 µg/mL | > 128 µg/mL | > 128 µg/mL | > 128 µg/mL | > 128 µg/mL | – | – | – | – | –
15 | Cc1c(CCO)c(N2CC[C@H](N(C)C)C2)n2c(nc3ccccc32)c1C#N | 16 µg/mL (≈ 44 µM) | > 128 µg/mL | > 128 µg/mL | 32 µg/mL (≈ 88 µM) | > 128 µg/mL | – | – | – | – | –
16 | CCc1c(-c2ccccc2)c(C#N)c2nc3ccccc3n2c1N1CC[C@H](N(C)C)C1 | > 128 µg/mL | > 128 µg/mL | > 128 µg/mL | > 128 µg/mL | > 128 µg/mL | – | – | – | – | –
17 | CCCCc1c(C)c(C#N)c2nc3ccccc3n2c1N1CC[C@H](N(C)C)C1 | 0.5 µg/mL (≈ 1.33 µM) | > 128 µg/mL | > 128 µg/mL | ≤ 0.125 µg/mL | 0.5 µg/mL (≈ 1.33 µM) | – | – | – | – | –
18 | CN(C)[C@H]1CCN(c2c(-c3ccccc3)cc(C#N)c3nc4ccccc4n23)C1 | 2 µg/mL (≈ 5.24 µM) | > 128 µg/mL | > 128 µg/mL | ≤ 0.125 µg/mL | 8 µg/mL (≈ 21 µM) | – | – | – | – | –
19 | CCc1c(C)c(C#N)c2nc3ccccc3n2c1N1CC[C@H](N(C)C)C1 | 2 µg/mL (≈ 5.76 µM) | > 128 µg/mL | > 128 µg/mL | 0.5 µg/mL (≈ 1.44 µM) | 32 µg/mL (≈ 92.1 µM) | – | – | – | – | –
